The results in this text go back to US20050261236A1, “Agonists of A2A adenosine receptors for treatment of diabetic nephropathy” (priority 2004, published 2005).

In one experiment the test system is fibronectin mRNA. The experiment in a line: Fibronectin mRNA (polymerase chain reaction) after induction of diabetes. Particulars: RNA from diabetic rats, PCR, FIG. 5, in words. Format: in vivo. How it is done: RNA from diabetic rats were extracted and subjected to polymerase chain reaction to examine profibrogenic factors. […] Trichrome stain of kidneys from diabetic rats treated with vehicle for 6 weeks (Panels a, c) or ATL146e-10 ng/kg/min (Panels b, d). Magnification ×400. Each panel represents a photograph from a different test animal. Results are illustrated in FIG. 5.

The test system of experiment [1] is Nitric Oxide End Products (Nitrite and Nitrate) (NOX). Nature of the experiment: Urinary nitric oxide end products (nitrite and nitrate) (NOX) in diabetes. Particulars: diabetic rats, 6 week after STZ induction, FIG. 4, in words. It counts as in vivo. How it is done: Rats were administered ATL146e (10 ng/kg/min) or vehicle by osmotic minipumps prior to the induction of diabetes by STZ (50 mg/kg, iv) and followed for up to 6 week. Table 1, below illustrates the effect of STZ on blood glucose, body weight, systolic blood pressure and 24 hours of urine volume as well as the effect of ATL146e. As shown to the right, NOX (as an indicator of endothelial function in the kidney) was decreased in diabetes group at 6 week after STZ induction of diabetes. The decreased in NOX was improved by ATL146e. […] Results are illustrated in FIG. 4.

Experiment [2] relates to STZ (45 mg/kg) Diabetic Model. Nature of the experiment: Blood glucose, body weight, systolic blood pressure and urine volume in STZ diabetic model. The settings on record: for 24 h Urine Volume / Body Weight / Systolic Blood Pressure: Diabetes + ATL146e (10 ng/kg/min); for 24 h Urine Volume / Body Weight / Systolic Blood Pressure / Blood Glucose: STZ rats; for Blood Glucose: Diabetes + ATL146e (10 ng/kg/min, osmotic minipump). It counts as in vivo, rats. As to the method: Effects of ATL146e on Blood Glucose, Body Weight, Systolic Blood Pressure and Urine Volume in STZ (45 mg/kg) Diabetic Model (n=5 Each Group) Rats were administered ATL146e (10 ng/kg/min) or vehicle by osmotic minipumps prior to the induction of diabetes by STZ […] and followed for up to 6 week. Table 1, below illustrates the effect of STZ on blood glucose, body weight, systolic blood pressure and 24 hours of urine volume as well as the effect of ATL146e. Table 1 summarizes the data for blood glucose (BG), body weight (BW), systolic blood pressure (SBP) and 24 hour urinary volume (UV). Basal BG level was 74±4 mg/dl and increased to 325±4 mg/dl 48 hours after STZ-induction of diabetes and continued to be elevated at 3 and 6 weeks of the study period. Normal rats gained weight as expected. […] There were no significant changes in SBP, 3 weeks after STZ-induction of diabetes between all groups.

The subject of a further experiment is diabetic rats. The experiment in a line: Plasma creatinine in diabetes. The settings on record: diabetic rats versus vehicle, FIG. 2, in words. Format: in vivo. How it is done: (§1) Rats were administered ATL146e (10 ng/kg/min) or vehicle by osmotic minipumps prior to the induction of diabetes by STZ (50 mg/kg, iv) and followed for up to 6 week. Table 1, below illustrates the effect of STZ on blood glucose, body weight, systolic blood pressure and 24 hours of urine volume as well as the effect of ATL146e. […] Results are illustrated in FIG. 2.

In experiment [3] the test system is STZ-induced diabetic animal model. The experiment in a line: Urinary albumin excretion in diabetes. It counts as in vivo. Particulars: STZ diabetic rats, 24 hour urine, FIG. 1, in words. How it is done:
as §1, with “ATL146e. Urine collections were obtained for 24 hours for measurement of urinary albumin excretion (UAE). UAE rate was 135±35 μg/24 hours at baseline and increased to 1265±500 μg/24 hours and 2921±335 μg/24 hours (P<0.0001) at week 2 and 6, respectively in the diabetic group.” for “ATL146e.”, “1.” for “2.”

In another experiment the test system is TNF-alpha. Nature of the experiment: Urinary and plasma TNF-alpha in diabetes. Format: in vivo, rats. How it is done: Rats were administered ATL146e (10 ng/kg/min) or vehicle by osmotic minipumps prior to the induction of diabetes by STZ (50 mg/kg, iv) and followed for up to 6 week. Table 1, below illustrates the effect of STZ on blood glucose, body weight, systolic blood pressure and 24 hours of urine volume as well as the effect of ATL146e. Urinary TNF-alpha was not different between groups before STZ treatment. […] Results are illustrated in FIG. 3.

As to `CCNC(=O)C1OC(n2cnc3c(N)nc(C#CCC4CCC(C(=O)OC)CC4)nc32)C(O)C1O` (stereo not drawn) [ATL146e, 4-{3-[6-Amino-9-(5-ethylcarbamoyl-3,4-dihydroxytetrahydro-furan-2-yl)-9H-purin-2-yl]-prop-2-ynyl}cyclo-hexanecarboxylic acid methyl ester], the “Effect on the increase in fibronectin mRNA induced by diabetes” value in the experiment with fibronectin mRNA was “reduced to levels near control”. In experiment [1], the “Effect on decreased urinary NOX” value is “restored to normal levels”. Moreover, the “24 h Urine Volume” value in experiment [2] (Baseline) was 15 ± 2 mL; in experiment [2] (Week 2), 53 ± 13 mL; in experiment [2] (Week 4), 57 ± 15 mL; in experiment [2] (Week 6), 59 ± 23 mL. Besides, the “Body Weight” value is 250 ± 13 g in experiment [2] (Baseline), 323 ± 13 g in experiment [2] (Week 3) and 358 ± 24 g in experiment [2] (Week 6). In addition, the “Systolic Blood Pressure” value is listed as 123 ± 4 mmHg in experiment [2] (Week 3) and 114 ± 2 mmHg in experiment [2] (Week 6). Moreover, the “Blood Glucose” value in experiment [2] (Baseline) stood at 75 ± 5 mg/dL; in experiment [2] (Week 1), 311 ± 37 mg/dL; in experiment [2] (Week 6) it was 359 ± 23 mg/dL. In experiment [2] (STZ diabetic rats, after 6 weeks, in words), the “Effect on the increase in SBP observed in diabetes with no treatment” value is on record as “restored the increase in SBP”. Besides, the “24 hour urinary volume (UV)” value in experiment [2] (diabetes+ATL146e group after STZ-induction, throughout study period, in words) is recorded as “increased significantly”. In addition, in experiment [2] (diabetes+ATL146e rats versus normal rats of matched age, in words), the “Increase in BW” value was “modest and significant from normal rats”. For the same compound, the “Effect on the increase in plasma creatinine” value in the experiment with diabetic rats is recorded as “significantly restored to normal”. In addition, the “Effect on urinary albumin excretion (UAE)” value in experiment [3] is on record as “minimizes the increase of UAE”. Also, the “Plasma TNF-alpha” value in the experiment with TNF-alpha (all groups, any point of the study periods (data not shown)) was “not detectable”. Besides, the “Effect on the increase in TNF-alpha (printed: Plasma TNF-alpha)” value in the experiment on TNF-alpha (diabetic rats, 6 week after diabetes, FIG. 3, in words) is reported as “significantly (P<0.05) reduced the increase in Plasma TNF-alpha”.
